Measured values taken from patent US20210395239A1 (Hoffmann-La Roche Inc., priority 2018, published 2021).

Target: T1, human TLR8 (Homo sapiens, UniProt Q9NR97)
T1 construct: host or cells: HEK293 (HEK-Blue hTLR8)
T1 sequence (Q9NR97 27-1041): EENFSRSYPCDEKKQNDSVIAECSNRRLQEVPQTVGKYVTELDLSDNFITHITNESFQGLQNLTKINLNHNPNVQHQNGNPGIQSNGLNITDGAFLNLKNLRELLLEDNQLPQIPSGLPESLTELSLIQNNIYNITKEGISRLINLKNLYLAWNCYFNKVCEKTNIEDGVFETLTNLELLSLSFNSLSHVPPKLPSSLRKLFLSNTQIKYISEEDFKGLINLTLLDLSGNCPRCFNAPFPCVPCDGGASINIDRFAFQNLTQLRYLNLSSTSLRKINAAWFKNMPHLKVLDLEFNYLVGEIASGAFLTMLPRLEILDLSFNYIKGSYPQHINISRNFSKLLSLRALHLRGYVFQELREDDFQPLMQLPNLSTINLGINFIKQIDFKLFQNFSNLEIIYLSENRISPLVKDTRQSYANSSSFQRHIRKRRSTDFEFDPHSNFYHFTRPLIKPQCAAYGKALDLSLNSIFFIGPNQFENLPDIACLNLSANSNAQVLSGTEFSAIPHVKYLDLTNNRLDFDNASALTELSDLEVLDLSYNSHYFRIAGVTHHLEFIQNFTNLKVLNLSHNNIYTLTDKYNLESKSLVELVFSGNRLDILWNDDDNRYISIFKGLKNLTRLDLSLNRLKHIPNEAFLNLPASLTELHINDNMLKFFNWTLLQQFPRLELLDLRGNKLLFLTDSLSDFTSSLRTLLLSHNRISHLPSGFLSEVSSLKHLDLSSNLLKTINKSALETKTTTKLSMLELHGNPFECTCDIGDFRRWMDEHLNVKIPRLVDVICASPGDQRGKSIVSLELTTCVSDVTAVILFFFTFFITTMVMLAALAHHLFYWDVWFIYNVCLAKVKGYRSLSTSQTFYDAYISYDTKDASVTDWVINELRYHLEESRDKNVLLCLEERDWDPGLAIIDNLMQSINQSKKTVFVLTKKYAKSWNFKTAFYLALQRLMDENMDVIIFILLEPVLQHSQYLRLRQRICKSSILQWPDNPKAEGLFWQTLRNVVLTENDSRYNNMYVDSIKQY
Assay: HEK293-Blue-hTLR-8 cells assay (SEAP reporter, R848 stimulation)
Type: cell-based
Settings: HEK293-Blue-hTLR8 cells, R848, 20 hrs; read-out: HEK/hTLR8 IC50
In short: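 Antagonism read as reduced R848-induced SEAP reporter secretion, detected by QUANTI-Blue absorbance at 620–655 nm after 2 h. Reporter cells were exposed to compound dilutions in DMEM/10% FBS, 1% DMSO, for 20 h at 37° C.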

Row | IC50 [nM] | Structure (SMILES)
1 | 6 | C[C@@H]1CN(c2ccc(C#N)c3ncccc23)C[C@H](CN2CCN(c3ncc(F)c(N4CCNCC4)n3)CC2)O1 [Example 94, 5-[(2S,6R)-2-[[4-(5-fluoro-4-piperazin-1-yl-pyrimidin-2-yl)piperazin-1-yl]methyl]-6-methyl-morpholin-4-yl]quinoline-8-carbonitrile]
2 | 17 | [2H]c1ccc2c(N3C[C@H](CN4CCN(c5ccc(N6CC7(CNCCO7)C6)nc5)CC4)O[C@H](C)C3)ccc(C#N)c2n1 [Example 152, 2-deuterio-5-[(2R,6S)-2-methyl-6-[[4-[6-(5-oxa-2,8-diazaspiro[3.5]nonan-2-yl)-3-pyridyl]piperazin-1-yl]methyl]morpholin-4-yl]quinoline-8-carbonitrile]
3 | 1 | CO[C@@H]1CN(c2nccc(N3CCN(C[C@H]4CN(c5ccc(C#N)c6nccnc56)C[C@@H](C)O4)CC3)n2)C[C@H]1N [Example 98, 8-[(2S,6R)-2-[[4-[2-[(3R,4R)-3-amino-4-methoxy-pyrrolidin-1-yl]pyrimidin-4-yl]piperazin-1-yl]methyl]-6-methyl-morpholin-4-yl]quinoxaline-5-carbonitrile]
4 | 2 | CO[C@@H]1CN(c2nccc(N3CCN(C[C@H]4CN(c5ccc(C#N)c6ncccc56)C[C@@H](C)O4)CC3)n2)C[C@@H]1N [Example 92, 5-[(2S,6R)-2-[[4-[2-[(3S,4R)-3-amino-4-methoxy-pyrrolidin-1-yl]pyrimidin-4-yl]piperazin-1-yl]methyl]-6-methyl-morpholin-4-yl]quinoline-8-carbonitrile]
